Measured values: patent US9120762B2, “Salts of bicyclo-substituted pyrazolon azo derivatives, preparation method and use thereof” (Jiangsu Hengrui Medicine Co., Ltd., priority 2009, dated 2015)
Like-named read-outs stand apart in the source and are kept apart here.

Assays:
[1] = Solubility assay in water, 0.1% hydrochloric acid and methanol; format: physicochemical; details: read-out: solubility
Procedure: The solubility was characterized by:
The term “very soluble” refers to that 1 g (mL) of solute can be dissolved in less than 1 mL of solvent;
The term “freely soluble” refers to that 1 g (mL) of solute can be dissolved in from 1 mL to 10 mL, not including 10 mL of solvent;
The term “soluble” refers to that 1 g (mL) of solute can be dissolved in from 10 mL to 30 mL, not including 30 mL of solvent;
The term “sparingly soluble” refers to that 1g (mL) of solute can be dissolved in from 30 mL to 100 mL, not including 100 mL of solvent;
The term “slightly soluble” refers to that 1g (mL) of solute can be dissolved in from 100 mL to 1000 mL, not including 1000 mL of solvent;
The term “very slightly soluble” refers to that 1g (mL) of solute can be dissolved in from 1000 mL to 10000 mL, not including 10000 mL of solvent;
The term “practically insoluble or insoluble” refers to that 1g (mL) of solute cannot be dissolved completely in 10000 mL of solvent.

[2] = biological target: T1, human TPOR (Homo sapiens, UniProt P40238); assay: Proliferation effect on BAF3-TPOR cell (CCK-8); format: cell-based; details: rate relative to rhTPO positive control
T1 construct: host or cells: BaF3 (murine pro-B cells), stably transfected, G418-selected
T1 sequence (P40238 26-635): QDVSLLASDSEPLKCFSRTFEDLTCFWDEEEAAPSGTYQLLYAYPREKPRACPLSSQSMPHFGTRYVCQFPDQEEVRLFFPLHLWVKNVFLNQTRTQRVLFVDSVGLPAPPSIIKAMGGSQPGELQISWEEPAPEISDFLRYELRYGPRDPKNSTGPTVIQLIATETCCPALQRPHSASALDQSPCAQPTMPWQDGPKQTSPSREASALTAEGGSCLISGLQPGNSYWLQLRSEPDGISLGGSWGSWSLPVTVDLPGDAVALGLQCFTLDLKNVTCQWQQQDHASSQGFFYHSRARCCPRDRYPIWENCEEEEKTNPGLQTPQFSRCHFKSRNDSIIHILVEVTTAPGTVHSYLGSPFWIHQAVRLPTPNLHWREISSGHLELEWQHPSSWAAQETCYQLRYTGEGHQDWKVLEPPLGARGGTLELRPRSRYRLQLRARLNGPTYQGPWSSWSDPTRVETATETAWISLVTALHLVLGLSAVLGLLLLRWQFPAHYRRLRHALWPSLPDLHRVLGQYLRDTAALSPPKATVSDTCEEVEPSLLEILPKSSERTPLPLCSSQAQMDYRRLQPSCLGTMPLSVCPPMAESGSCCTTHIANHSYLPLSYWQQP
Procedure: (1) Plasmid constructs: based on the TPO receptor (TPOR) sequence information from Entrez (Gene ID: 4325, Refseq: NM_005373), dual-site mutation was performed on EX-B0010-M02 plasmid by using QuikChange® Multi Site Directed Mutagenesis Kit (Stratagene). The sequence of primers containing multi-sites mutation was designed as follows: […]
The E. coli DH5α competent cells were transformed with mutated plasmid, and positive colonies were picked up through ampicillin selection. The mutation result was confirmed by sequence analysis.
(2) BAF3-TPOR stable transfected cell line: the following method was used to construct the BaF3 cell which stably over-expressed functional human TPOR. The successfully mutated EX-B0010-M02 plasmid ([…]) which expressed human TPOR and screening gene neomycin was transfected into wild-type BaF3 cells (1×10^7) by electroporation at 250V for 18 ms using an electric pulse generator (Electro Square Porator ECM830, BTX Division of Genetronic, Inc. US). The stable transfected cells BAF3-TPOR were selected with G418 (Gibco, US), then incubated in RPMI1640 medium plus 10% FBS (Gibco, US), […] G418, 5 ng/mL, rmIL-3 (Chemicon, US).
(1) Washing cells by centrifugation: a suitable amount of cell suspension was centrifuged at 1000 rpm for 5 minutes, and the supernatant was discarded. 10 mL of cell culture media without IL-3 was added. Then the resulting cell suspension was centrifuged at 1000 rpm for 5 minutes, and the supernatant was discarded.
(2) 1 mL of cell culture media without IL-3 was added to beat upon them to equality, and the number of a suitable amount of cell suspension was counted after dilution.
(3) According to the result of the cell counting, a cell suspension in a concentration of 100,000 cell/mL was prepared.
(4) 100 μL of cell suspension was transferred to each well of 96-well culture plate, and there were 3 parallel wells, that is, there were a blank control group (B), a negative control group (N), a positive control group of TPO (P) and a test compound group (S).
(5) The test compound was dissolved in DMSO to prepare a 10 mM stock solution, and then the solution was diluted with RPMI 1640 medium into a series of test samples at different concentration: 30 μM, 10 μM, 3 μM, 1 μM, 0.3 μM, 0.1 μM, 0.03 μM, 0.01 μM, 0.003 μM, 0.001 μM.
(6) 10 μL of test compound solution was transferred to each well respectively; 1 μL of rhTPO (10 ng/mL) was added to positive control well.
(7) The plates were incubated in an incubator at 5% CO2 and 37° C. for 24 hours.
(8) After incubation, 10 μL of CCK-8 solution was added to each well and the plates were incubated in the incubator for another 24 hours.
(9) OD value was detected at 450 nm by VICTORS (Perkin Elmer 1420-120) plate reader.
(1) The proliferation rate was calculated as follows: Rate=[(S−B)/(P−B)]*100%
S: OD value of wells which contain test compound.
B: OD value of blank control wells
P: OD value of positive control wells
(2) The EC50 value was calculated by Origin 7.0 software.

[3] = Pharmacokinetics assay in rats; format: in vivo, SD rats; details: 50 mg/kg, SD rats, intragastric, 50 mg/Kg (as free acid); for Vd/F / AUC / CL/F / half-life / MRT / Cmax / Tmax: both sexes, SD, rat, plasma, po; for Vd/F: read-out: Apparent Distribution Volume Vz/F; for AUC: read-out: Area Under Curve AUC; for CL/F: read-out: Clearance CL/F (converted); for half-life: read-out: Half-Life t½ (converted); for MRT: read-out: Mean Residence Time MRT; for Cmax: read-out: Plasma Conc. Cmax; for Tmax: read-out: Time to peak Tmax
Procedure: The compounds of the present disclosure were administrated intragastrically to rats to determine the drug concentration in plasma at different time points by HPLC-UV. The pharmacokinetic behavior of the compounds of the present disclosure was studied and evaluated in rats. […] Healthy adult SD rats, male and female in half, were purchased from SINO-BRITSH SIPPR/BK LAB.ANIMAL LTD., Colo., License number: SCXK (Shanghai) 2003-0002 The test compound was diluted with 1% sodium carboxymethyl cellulose to 5 mg/mL (calculated as the free acid form) of suspension before use. Healthy adult SD rats, male and female in half, were divided into 23 groups. […] The plasma samples were stored at −20° C. until analysis. The rats were fed 2 hours after administration. […] Then the mixture was mixed for 3 minute using a vortexer and centrifuged for 10 minutes at 13,500 rpm. 40 μL of the supernatant was analyzed by HPLC-UV. The compartmental model of pharmacokinetics was fitted for the test compounds and the major pharmacokinetic parameters were calculated in which Cmax and tmax were the actually measured values.

CC1=NN(c2ccc3c(c2)CCC3)C(=O)/C1=N\Nc1cccc(-c2cccc(C(=O)O)c2)c1O.NCCO.NCCO [Example 1, (Z)-2′-hydroxy-3′-[N′-(1-indan-5-yl-3-methyl-5-oxo-1,5-dihydro-pyrazol-4-ylidene)-hydrazino]-biphenyl-3-carboxylic acid bis-(ethanolamine)]
solubility ([1]; 0.1% hydrochloric acid, simulated gastric fluid, 0.1% hydrochloric acid): < 1 µg/mL
solubility ([1]; methanol, organic solvent or mixture, methanol): 1470 µg/mL
solubility ([1]; water): 3 µg/mL
EC50 [2]: 0.15 µM
Vd/F [3]: 0.45 ± 0.32 L/kg
AUC [3]: 501 ± 178 µg·h/mL
CL/F [3]: 1.63 mL/min/kg
half-life [3]: 5.39 ± 0.94 h
MRT [3]: 4.96 ± 1.16 h
Cmax [3]: 90100 ± 35300 ng/mL
Tmax [3]: 3.25 ± 1.5 h

CC1=NN(c2ccc3c(c2)C(C)(C)CC3)C(=O)/C1=N\Nc1cccc(-c2ccc(C(=O)O)o2)c1O [Example 5, (Z)-5-(3-{N′-[1-(3,3-dimethyl-indan-5-yl)-3-methyl-5-oxo-1,5-dihydro-pyrazol-4-ylidene]-hydrazino}-2-hydroxy-phenyl)-furan-2-carboxylic acid bis-(diethylamine)]
EC50 [2]: 0.019 µM
Area Under Curve AUC [3]: 255 ± 95 µg·h/mL
Clearance CL/F [3]: 3.67 ± 1.2 mL/min/kg
Half-Life t½ [3]: 15.0 ± 6.2 h
Mean Residence Time MRT [3]: 20.8 ± 9.1 h
Plasma Conc. Cmax [3]: 19800 ± 3800 ng/mL
Time to peak Tmax [3]: 3.25 ± 1.5 h

CC1=NN(c2ccc3c(c2)CCCC3)C(=O)/C1=N\Nc1cccc(-c2ccc(C(=O)O)o2)c1O [Example 9, (Z)-5-(2-hydroxy-3-{N′-[3-methyl-5-oxo-1-(5,6,7,8-tetrahydro-naphthalen-2-yl)-1,5-dihydro-pyrazol-4-ylidene]-hydrazino}-phenyl)-furan-2-carboxylic acid bis-(diethylamine)]
EC50 [2]: 0.014 µM
Area Under Curve AUC [3]: 146 ± 69.7 µg·h/mL
Clearance CL/F [3]: 6.52 ± 2.42 mL/min/kg
Half-Life t½ [3]: 9.65 ± 2.48 h
Plasma Conc. Cmax [3]: 21200 ± 10400 ng/mL
Time to peak Tmax [3]: 2.88 ± 2.59 h

CC1=NN(c2ccc3c(c2)CCCC3)C(=O)/C1=N\Nc1cccc(-c2ccc(C(=O)O)o2)c1O [Example 13, (Z)-5-(2-hydroxy-3-{N′-[3-methyl-5-oxo-1-(5,6,7,8-tetrahydro-naphthalen-2-yl)-1,5-dihydro-pyrazol-4-ylidene]-hydrazino}-phenyl)-furan-2-carboxylic acid bis-(dibenzylethylenediamine)]
EC50 [2]: 0.02 µM
Area Under Curve AUC [3]: 42.8 ± 33.2 µg·h/mL
Clearance CL/F [3]: 27.2 ± 13.8 mL/min/kg
Half-Life t½ [3]: 5.70 ± 2.50 h
Plasma Conc. Cmax [3]: 8100 ± 3350 ng/mL
Time to peak Tmax [3]: 1.38 ± 1.11 h

CC1=NN(c2ccc3c(c2)CCCC3)C(=O)/C1=N\Nc1cccc(-c2ccc(C(=O)O)o2)c1O [Example 15, (Z)-5-(2-hydroxy-3-{N′-[3-methyl-5-oxo-1-(5,6,7,8-tetrahydro-naphthalen-2-yl)-1,5-dihydro-pyrazol-4-ylidene]-hydrazino}-phenyl)-furan-2-carboxylic acid bis-(L-arginine)]
EC50 [2]: 0.016 µM
Area Under Curve AUC [3]: 168 ± 118 µg·h/mL
Clearance CL/F [3]: 12.6 ± 16.6 mL/min/kg
Half-Life t½ [3]: 6.56 ± 3.80 h
Plasma Conc. Cmax [3]: 23300 ± 13600 ng/mL
Time to peak Tmax [3]: 2.0 ± 1.16 h

CC1=NN(c2ccc3c(c2)CCCC3)C(=O)/C1=N\Nc1cccc(-c2coc(C(=O)O)c2)c1O.NCCO.NCCO [Example 22, (Z)-4-(2-Hydroxy-3-{N′-[3-methyl-5-oxo-1-(5,6,7,8-tetrahydro-naphthal-2-yl)-1,5-dihydro-pyrazol-4-ylidene]-hydrazino}-phenyl)-furan-2-carboxylic acid bis-(ethanolamine)]
EC50 [2]: 0.039 µM
Vd/F [3]: 3.41 ± 1.75 L/kg
AUC [3]: 603 ± 240 µg·h/mL
CL/F [3]: 4 mL/min/kg
half-life [3]: 9.95 ± 0.6 h
MRT [3]: 14.8 ± 1 h
Cmax [3]: 39800 ± 18200 ng/mL
Tmax [3]: 5 ± 2 h

CC1=NN(c2ccc3c(c2)CCCC3)C(=O)/C1=N\Nc1cccc(-c2coc(C(=O)O)c2)c1O [Example 22f, (Z)-4-(2-hydroxy-3-{N′-[3-methyl-5-oxo-1-(5,6,7,8-tetrahydro-naphthal-2-yl)-1,5-dihydro-pyrazol-4-ylidene]-hydrazino}-phenyl)-furan-2-carboxylic acid]
EC50 [2]: 0.042 µM
Vd/F [3]: 8.49 ± 2.16 L/kg
AUC [3]: 151 ± 97 µg·h/mL
CL/F [3]: 11.5 mL/min/kg
half-life [3]: 9.21 ± 1.57 h
MRT [3]: 11.8 ± 4.5 h
Cmax [3]: 8730 ± 2580 ng/mL
Tmax [3]: 4.25 ± 1.26 h
